Test results from patent US6475953B1, “Composition and method for treating plants with exogenous chemicals” (Monsanto Technology LLC, priority 1996, dated 2002).

What was measured:
Format in all cases: in vivo
[1] = tested on: Japanese millet (Echinochloa crus-galli, ECHCF); assay: Greenhouse herbicidal effectiveness test, percent inhibition, Japanese millet; details: for % Inhibition ECHCF: Example 90, evaluation 11 days after application
Description: (§1) The herbicidal effectiveness data set forth herein report “inhibition” as a percentage following a standard procedure in the art which reflects a visual assessment of plant mortality and growth reduction by comparison with untreated plants, made by technicians specially trained to make and record such observations. In all cases. a single technician makes all assessments of percent inhibition within any one experiment or trial. Such measurements are relied upon and regularly reported by Monsanto Company in the course of its herbicide business.
(§2) The following procedure was used for testing compositions of the Examples to determine herbicidal effectiveness, except where otherwise indicated.
(§3) Seeds of the plant species indicated were planted in 85 mm square pots in a soil mix which was previously steam sterilized and prefertilized with a 14-14-14 NPK slow release fertilizer at a rate of 3.6 kg/m3. The pots were placed in a greenhouse with sub-irrigation. About one week after emergence, seedlings were thinned as needed, including removal of any unhealthy or abnormal plants, to create a uniform series of test pots.
(§4) The plants were maintained for the duration of the test in the greenhouse where they received a minimum of 14 hours of light per day. If natural light was insufficient to achieve the daily requirement, artificial light with an intensity of approximately 475 microeinsteins was used to make up the difference. Exposure temperatures were not precisely controlled but averaged about 27° C. during the day and about 18° C. during the night. Plants were sub-irrigated throughout the test to ensure adequate soil moisture levels.
(§5) A set of pots was left untreated as a reference against which effects of the treatments could later be evaluated.
(§6) Application of glyphosate compositions was made by spraying with a track sprayer fitted with a 9501E nozzle calibrated to deliver a spray volume of 93 liters per hectare (1/ha) at a pressure of 166 kilopascals (kPa). After treatment, pots were returned to the greenhouse until ready for evaluation.
(§7) Treatments were made using dilute aqueous compositions. These could be prepared as spray compositions directly from their ingredients, or by dilution with water of preformulated concentrate compositions.
(§8) For evaluation of herbicidal effectiveness, all plants in the test were examined by a single practiced technician, who recorded percent inhibition, a visual measurement of the effectiveness of each treatment by comparison with untreated plants.
(§9) Velvetleaf (Abutilon theophrasti, ABUTH) and Japanese millet (Echinochloa crus-galli, ECHCF) plants were grown and treated by the standard procedures given above. […]

[2] = tested on: Prickly sida (Sida spinosa, SIDSP); assay: Greenhouse herbicidal effectiveness test, percent inhibition, prickly sida
Description: as §1, §2, §3, §4, §5, §6, §7
For evaluation of herbicidal effectiveness, all plants in the test were examined by a single practiced technician, who recorded percent inhibition, a visual measurement of the effectiveness of each treatment by comparison with untreated plants. […]
Prickly sida (Sida spinosa, SIDSP) plants were grown and treated by the standard procedures given above. Applications of spray compositions were made 22 days after planting SIDSP, and evaluation of herbicidal inhibition was done 19 days after application.
Prickly sida (Sida spinosa, SIDSP) plants were grown and treated by the standard procedures given above. Applications of spray compositions were made 23 days after planting SIDSP, and […].
Prickly sida (Sida spinosa, SIDSP) plants were grown and treated by the standard procedures given above. Applications of spray compositions were made 22 days after planting SIDSP, and evaluation of herbicidal inhibition was done 19 days after application. […]

[3] = tested on: Velvetleaf (Abutilon theophrasti, ABUTH); assay: Greenhouse herbicidal effectiveness test, percent inhibition, velvetleaf
Description: as §1, §2, §3, §4, §5, §6, §7, §8, §9

[4] = tested on: plant species indicated in the Example (ABUTH, ECHCF, SIDSP ...); assay: Greenhouse herbicidal effectiveness test, stated overall or averaged over the plant species of the Example; details: statement in the discussion of the Example at the place; rates and comparators as stated there
Description: as §1
The following procedure was used for testing compositions of the Examples to determine herbicidal effectiveness, except where otherwise indicated. […]
as §5
Application of glyphosate compositions was made by spraying with a track sprayer fitted with a 9501E nozzle calibrated to deliver a spray volume of 93 liters per hectare (1/ha) at a pressure of 166 kilopascals (kPa). After treatment, pots were returned to the greenhouse until ready for evaluation. […]
as §8

[5] = Echinochloa crus-galli, 240 h, read-out: % Inhibition ECHCF
[6] = Sida spinosa, 240 h, read-out: % Inhibition SIDSP
[7] = Example 90, glufosinate rate 50 g a.i./ha, evaluation 11 days after application

Work on `O=C(O)c1cc(Oc2ccc(C(F)(F)F)cc2Cl)ccc1[N+](=O)[O-]` [Acifluorfen] yielded an inhibition at 25 g/ha [1, 5] of 2%, an inhibition at 50 g/ha [1, 5] of 7% and an inhibition at 100 g/ha [1, 5] of 18%. It also gave an inhibition at 200 g/ha [1, 5] of 35%, an inhibition at 25 g/ha [2, 6] of 15% and an inhibition at 50 g/ha [2, 6] of 17%. It also gave an inhibition at 100 g/ha [2, 6] of 35%, an inhibition at 200 g/ha [2, 6] of 40% and an inhibition at 25 g/ha ([3]; Abutilon theophrasti, 240 h, Example 83, acifluorfen rate 25 g a.i./ha, evaluated 10 days after application) of 20%. It also gave an inhibition at 50 g/ha ([3]; Abutilon theophrasti, 240 h, Example 83, acifluorfen rate 50 g a.i./ha, evaluated 10 days after application) of 32%, an inhibition at 100 g/ha ([3]; Abutilon theophrasti, 240 h, Example 83, acifluorfen rate 100 g a.i./ha, evaluated 10 days after application) of 52% and an inhibition at 200 g/ha ([3]; Abutilon theophrasti, 240 h, Example 83, acifluorfen rate 200 g a.i./ha, evaluated 10 days after application) of 62%.

In the case of `COC(=O)NS(=O)(=O)c1ccc(N)cc1` [Asulam (technical)], the “% Inhibition ABUTH” value ([3]; asulam rate 400 g a.i./ha, evaluation 14 days after application) was 17%.

In the case of `COc1c(Cl)ccc(Cl)c1C(=O)O` [Dicamba (technical)], the “% Inhibition SIDSP” value ([2]; dicamba rate 25 g a.i./ha, evaluation 17 days after application) was 30%, the “% Inhibition SIDSP” value ([2]; dicamba rate 50 g a.i./ha, evaluation 17 days after application) was 40% and the “% Inhibition SIDSP” value ([2]; dicamba rate 100 g a.i./ha, evaluation 17 days after application) was 50%. The “% Inhibition SIDSP” value ([2]; dicamba rate 200 g a.i./ha, evaluation 17 days after application) was 58%.

In the case of `C[N+](C)(C)CCCNS(=O)(=O)C(F)(F)C(F)(F)C(F)(F)C(F)(F)C(F)(F)C(F)(F)C(F)(F)C(F)(F)F.[I-]` [Fluorad FC-135, 3-(((heptadecafluorooctyl)sulfonyl)amino)-N,N,N-trimethyl-1-propaminium iodide], the “concentration of Fluorad FC-135 which had to be added in tank-mix to Formulation B to bring its herbicidal performance up to that of Formulation C” value (from here on “concentration … of Formulation C”) ([1]; Example 21, ECHCF, after application) was “approximately 0.25%”, the optimum adjuvant concentration ([1]; Example 25, ECHCF, tank-mix adjuvant for glyphosate as Formulation B, 21 days after application) was 0.2% and the “concentration … of Formulation C” value ([2]; Example 21, SIDSP, 20 days after application) was roughly 0.1%. For the same compound, the “concentration … of Formulation C” value ([3]; Example 21, ABUTH, 20 days after application) was roughly 0.02% and the optimum adjuvant concentration ([3]; Example 25, ABUTH, tank-mix adjuvant for glyphosate as Formulation B, 21 days after application) was 0.2%.

With `CP(=O)(O)CCC(N)C(=O)O` (stereo not drawn) [Glufosinate (technical)] the “% Inhibition ECHCF” value ([1]; glufosinate rate 50 g a.i./ha) was 0%, the “% Inhibition ECHCF” value ([1]; glufosinate rate 100 g a.i./ha) was 0% and the “% Inhibition SIDSP” value [2, 7] was 5%. The “% Inhibition SIDSP” value ([2]; Example 90, glufosinate rate 100 g a.i./ha, evaluation 11 days after application) was 10% and the “% Inhibition ABUTH” value [3, 7] was 0%.

With `O=C(O)CNCP(=O)(O)O` [glyphosate, N-phosphonomethylglycine, reference compound] the “average inhibition of ABUTH” value ([3]; Example 27, average over four glyphosate rates, no excipient, 19 days after application) was 32%.

Steareth-20 was tested, and the “herbicidal effectiveness, overall for the species of the Example, in words” value [4] was “more effective additives for Formulation B than steareth-10”.

ceteareth-30 was tested, and the “herbicidal effectiveness, overall for the species of the Example, in words” value [4] was “more effective additives for Formulation B than steareth-10”.
